Among the data in patent US6448261B1, “Arylamino fused pyridines” (Bristol-Myers Squibb Pharma Company, priority 1996, dated 2002) are melting point values, retold here.

In general, melting point refers to the temperature of the solid-liquid transition. In the case of `CCCC(CCC)n1nnc2c(Nc3c(Cl)cc(OC)cc3OC)nc(C)cc21` [Example 225, N-(2-chloro-4,6-dimethoxyphenyl)-6-methyl-1-(1-propylbutyl)-1H-1,2,3-triazolo[4,5-c]pyridin-4-amine], the melting point fell in the range of 157 to 158 °C. `CCCCC(CC)n1nnc2c(Nc3c(Br)cc(OC)cc3OC)nc(C)cc21` (racemic) [Example 227, (+/−)-N-(2-bromo-4,6-dimethoxyphenyl)-1-(1-ethylpentyl)-6-methyl-1H-1,2,3-triazolo[4,5-c]pyridin-4-amine] showed a melting point of 127 to 128 °C.

For the molecule `CCC(COC)n1nnc2c(Nc3c(Br)cc(OC)cc3OC)nc(C)nc21` (racemic) [Example 30, (+/−)-N-(2-bromo-4,6-dimethoxyphenyl)-3-[1-(1-methoxymethyl)propyl]-5-methyl-3H-1,2,3-triazolo[4,5-d]pyrimidin-7-amine], the melting point is 154 to 155 °C. Take `CCC(COC)n1nnc2c(Nc3c(Cl)cc(OC)cc3OC)nc(C)nc21` (racemic) [Example 31, (+/−)-N-(2-chloro-4,6-dimethoxyphenyl)-3-[1-(1-methoxymethyl)propyl]-5-methyl-3H-1,2,3-triazolo[4,5-d]pyrimidin-7-amine]: the melting point lay within 149 to 150 °C.

In the case of `CCCC(CCC)n1nnc2c(Nc3ccc(C(C)C)cc3Br)nc(C)nc21` [Example 15, N-[2-bromo-4-(1-methylethyl)phenyl]-3-[1-propylbutyl]-5-methyl-3H-1,2,3-triazolo[4,5-d]pyrimidin-7-amine], the melting point fell in the range of 69 to 70 °C. Under `CCC(CC)n1nnc2c(Nc3ccc(C(C)C)cc3Br)nc(C)cc21` [Example 221, N-[2-bromo-4-(1-methylethyl)phenyl]-1-(1-ethylpropyl)-6-methyl-1H-1,2,3-triazolo[4,5-c]pyridin-4-amine] stands 144 to 145 °C; under `CCC(COC)n1nnc2c(Nc3c(C)cc(C)cc3C)nc(C)nc21` (racemic) [Example 32, (+/−)-3-[1-(1-methoxymethyl)propyl]-5-methyl-N-(2,4,6-trimethylphenyl)-3H-1,2,3-triazolo[4,5-d]pyrimidin-7-amine], 144.5 to 147 °C.

In turn, `CCC(CC)n1nnc2c(Nc3c(C)cc(C)cc3C)nc(C)nc21` [Example 34, 3-[1-(1-ethyl)propyl]-5-methyl-N-(2,4,6-trimethylphenyl)-3H-1,2,3-triazolo[4,5-d]pyrimidin-7-amine] came in with a melting point of 160 to 162 °C.

The molecule `CCCC(CC)n1nnc2c(Nc3ccc(C(C)C)cc3Br)nc(C)nc21` (racemic) [Example 17, (+/−)-N-[2-bromo-4-(1-methylethyl)phenyl]-3-[1-ethylbutyl]-5-methyl-3H-1,2,3-triazolo[4,5-d]pyrimidin-7-amine] came in with a melting point of 154 to 155 °C. In turn, `CCC(CC)n1nnc2c(Nc3ccc(C(C)=O)cc3Br)nc(C)nc21` [Example 26, N-(4-acetyl-2-bromophenyl)-3-[1-ethylpropyl]-5-methyl-3H-1,2,3-triazolo[4,5-d]pyrimidin-7-amine] returned a melting point of 153 to 154 °C.

For `CCCC(CC)n1nnc2c(Nc3c(C)cc(C)cc3C)nc(C)nc21` (racemic) [Example 35, (+/−)-3-[1-(1-ethyl)butyl]-5-methyl-N-(2,4,6-trimethylphenyl)-3H-1,2,3-triazolo[4,5-d]pyrimidin-7-amine], the melting point was in the range of 170.5 to 172 °C. In turn, `CCCCC(CCCC)n1nnc2c(Nc3ccc(C(C)C)cc3Br)nc(C)nc21` [Example 16, N-[2-bromo-4-(1-methylethyl)phenyl]-3-[1-butylpentyl]-5-methyl-3H-1,2,3-triazolo[4,5-d]pyrimidin-7-amine] showed a melting point of 132 to 133 °C. For `CCCCC(CC)n1nnc2c(Nc3c(Cl)cc(OC)cc3OC)nc(C)cc21` (racemic) [Example 228, (+/−)-N-(2-chloro-4,6-dimethoxyphenyl)-1-(1-ethylpentyl)-6-methyl-1H-1,2,3-triazolo[4,5-c]pyridin-4-amine] the value was 155 to 156 °C. For `CCC(COC)n1nnc2c(Nc3ccc(C(C)C)cc3Br)nc(C)nc21` (racemic) [Example 9, (+/−)-N-[2-bromo-4-(1-methylethyl)phenyl]-3-[1-(1-methoxymethyl)propyl]-5-methyl-3H-1,2,3-triazolo[4,5-d]pyrimidin-7-amine] the value was 115 to 116 °C; for `CCC(COC)n1nnc2c(Nc3ccc(Br)cc3C)nc(C)nc21` (racemic) [Example 42, (+/−)-N-(4-bromo-2-methylphenyl)-3-[1-(1-methoxymethyl)propyl]-5-methyl-3H-1,2,3-triazolo[4,5-d]pyrimidin-7-amine], 144.5 to 146 °C. On to `CCCC(CCC)n1nnc2c(Nc3c(C)cc(C)cc3C)nc(C)nc21` [Example 37, 5-methyl-3-[1-(1-propyl)butyl]-N-(2,4,6-trimethylphenyl)-3H-1,2,3-triazolo[4,5-d]pyrimidin-7-amine], for which the melting point was 143 to 144.5 °C.

The molecule `CCCCC(CC)n1nnc2c(Nc3c(C)cc(C)cc3C)nc(C)nc21` (racemic) [Example 36, (+/−)-3-[1-(1-ethyl)pentyl]-5-methyl-N-(2,4,6-trimethylphenyl)-3H-1,2,3-triazolo[4,5-d]pyrimidine-7-amine] gave a melting point of 129 to 130.5 °C. Under `COCCn1nnc2c(Nc3c(C)cc(C)cc3C)nc(C)nc21` [Example 38, 3-(2-methoxyethyl)-5-methyl-N-(2,4,6-trimethylphenyl)-3H-1,2,3-triazolo[4,5-d]pyrimidin-7-amine] stands 171.5 to 173.5 °C. In the case of `CCC(COC)n1nnc2c(Nc3ccc(C(C)=O)cc3Br)nc(C)nc21` (racemic) [Example 27, (+/−)-N-(4-acetyl-2-bromophenyl)-3-[1-(1-methoxymethyl)propyl]-5-methyl-3H-1,2,3-triazolo[4,5-d]pyrimidin-7-amine], the melting point lay in the range of 133 to 134 °C. As for `CCCC(CCC)n1nnc2c(Nc3c(C)cc(C)cc3Br)nc(C)nc21` [Example 21, N-(2-bromo-4,6-dimethylphenyl)-5-methyl-3-[1-propylbutyl]-3H-1,2,3-triazolo[4,5-d]pyrimidin-7-amine], the melting point was 141 to 142 °C. Under `COCCn1nnc2c(Nc3ccc(C(C)C)cc3Br)nc(C)nc21` [Example 6, N-[2-bromo-4-(1-methylethyl)phenyl]-3-(2-methoxyethyl)-5-methyl-3H-1,2,3-triazolo[4,5-d]pyrimidin-7-amine] stands 94 to 95 °C; under `COC[C@H](Cc1ccccc1)n1nnc2c(Nc3ccc(C(C)C)cc3Br)nc(C)nc21` [Example 11, (S)-N-[2-bromo-4-(1-methylethyl)phenyl]-3-[1-(1-methoxymethyl)-2-phenylethyl]-5-methyl-3H-1,2,3-triazolo[4,5-d]pyrimidin-7-amine], 67 to 69 °C; under `CCCC(CCC)n1nnc2c(Nc3ccc(Br)cc3C)nc(C)nc21` [Example 40, N-(2-Methyl-4-bromophenyl)-3-[1-(1-propyl)butyl]-5-methyl-3H-1,2,3-triazolo[4,5-d]pyrimidin-7-amine], 126.5 to 128 °C.

With `CCCCC(CC)n1nnc2c(Nc3ccc(C(C)C)cc3Br)nc(C)nc21` (racemic) [Example 13, (+/−)-N-[2-bromo-4-(1-methylethyl)phenyl]-3-[1-ethylpentyl]-5-methyl-3H-1,2,3-triazolo[4,5-d]pyrimidin-7-amine], the melting point lay within 137 to 138 °C. Turning to `CCCC(CCC)n1nnc2c(Nc3c(Br)cc(OC)cc3OC)nc(C)cc21` [Example 224, N-(2-bromo-4,6-dimethoxyphenyl)-6-methyl-1-(1-propylbutyl)-1H-1,2,3-triazolo[4,5-c]pyridin-4-amine], the melting point lay within 140 to 141 °C. In turn, `CCCCC(CC)n1nnc2c(Nc3ccc(C(C)C)cc3Br)nc(C)cc21` (racemic) [Example 226, (+/−)-N-[2-bromo-4-(1-methylethyl)phenyl]-1-(1-ethylpentyl)-6-methyl-1H-1,2,3-triazolo[4,5-c]pyridin-4-amine] showed a melting point of 73 to 74 °C. For `CCCn1nnc2c(Nc3ccc(C(C)C)cc3Br)nc(C)nc21` [Example 1, N-[2-bromo-4-(1-methylethyl)phenyl]-5-methyl-3-propyl-3H-1,2,3-triazolo[4,5-d]pyrimidin-7-amine] the value was 80 to 81 °C; for `CCC(CC)n1nnc2c(Nc3c(Br)cc(OC)cc3OC)nc(C)cc21` [Example 222, N-(2-bromo-4,6-dimethoxyphenyl)-1-(1-ethylpropyl)-6-methyl-1H-1,2,3-triazolo[4,5-c]pyridin-4-amine], 166 to 167 °C; for `CCC(CC)n1nnc2c(Nc3ccc(C(C)C)cc3Br)nc(C)nc21` [Example 19, N-[2-bromo-4-(1-methylethyl)phenyl]-3-[1-ethylpropyl]-5-methyl-3H-1,2,3-triazolo[4,5-d]pyrimidin-7-amine], 171 to 172 °C.
